From US10638756B2, “Molecules having pesticidal utility, and intermediates, compositions, and processes, related thereto” (Dow AgroSciences LLC, priority 2017, dated 2020)

Key:
[1] = tested on: Beet Armyworm (Spodoptera exigua); experiment: Bioassay on Beet Armyworm (BAW), 128-well diet tray assay; assay type: in vivo; details: for mortality at 50 µg/cm2: Spodoptera exigua, 168 h, 50 μg/cm^2 on artificial diet, second instar larvae, five to seven days, read-out: BAW % Control (or Mortality) rating
[2] = tested on: Cabbage Looper (Trichoplusia ni); experiment: Bioassay on Cabbage Looper (CL), 128-well diet tray assay; assay type: in vivo; details: 168 h, 50 μg/cm^2 on artificial diet, second instar larvae, five to seven days, read-out: CL % Control (or Mortality) rating
In short: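 Test molecule was dissolved in 90:10 acetone-water, applied to artificial diet at 50 μg/cm^2 and allowed to dry. Second-instar larvae were then added, one to five per well, and trays held at 25° C for five to seven days before mortality was scored and averaged.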

Structure (SMILES) | mortality at 50 µg/cm2 [1] [%] | mortality at 50 µg/cm2 [2] [%] | BAW (Table CD-2) ([1]; 0.005 μg/cm^2) | BAW (Table CD-2) ([1]; 0.05 μg/cm^2) | BAW (Table CD-2) ([1]; 0.5 μg/cm^2) | BAW (Table CD-2) ([1]; 5.0 μg/cm^2)
O=C(NNc1ncccn1)c1ccc(/C(F)=C/C(c2cc(Cl)c(Cl)c(C3CC3)c2)C(F)(F)F)cc1C(F)(F)F (stereo not shown) [F191, (Z)-4-(3-(3,4-Dichloro-5-cyclopropylphenyl)-1,4,4,4-tetrafluorobut-1-en-1-yl)-N′-(pyrimidin-2-yl)-2-(trifluoromethyl)benzohydrazide] | 50 to 100 | 50 to 100 |  |  |  | 
CN(NC(=O)c1ccc(/C(F)=C/C(c2cc(Cl)c(F)c(Cl)c2)C(F)(F)F)cc1C(F)(F)F)c1ncccn1 (stereo not shown) [F2, (Z)-4-(3-(3,5-Dichloro-4-fluorophenyl)-1,4,4,4-tetrafluorobut-1-en-1-yl)-N′-methyl-N′-(pyrimidin-2-yl)-2-(trifluoromethyl)benzohydrazide] | 50 to 100 | 50 to 100 |  |  |  | 
Cc1cc(O)nc(NNC(=O)c2ccc(/C(F)=C/C(c3cc(Cl)c(Cl)c(Cl)c3)C(F)(F)F)cc2C(F)(F)F)n1 (stereo not shown) [F105, (Z)—N′-(4-Hydroxy-6-methylpyrimidin-2-yl)-4-(1,4,4,4-tetrafluoro-3-(3,4,5-trichlorophenyl)but-1-en-1-yl)-2-(trifluoromethyl)benzohydrazide] | 50 to 100 | 50 to 100 |  |  |  | 
O=C(NNc1ccc(C(F)(F)F)cc1)c1ccc(/C(F)=C/C(c2cc(Cl)c(Cl)c(Cl)c2)C(F)(F)F)cc1C(F)(F)F (stereo not shown) [F70, (Z)-4-(1,4,4,4-tetrafluoro-3-(3,4,5-trichlorophenyl)but-1-en-1-yl)-2-(trifluoromethyl)-N′-(4-(trifluoromethyl)phenyl)benzohydrazide] | 50 to 100 | 50 to 100 |  |  |  | 
O=C(Nn1cnnc1)c1ccc(/C(F)=C/C(c2cc(Cl)c(Cl)c(Cl)c2)C(F)(F)F)cc1C(F)(F)F (stereo not shown) [F48, (Z)-4-(1,4,4,4-Tetrafluoro-3-(3,4,5-trichlorophenyl)but-1-en-1-yl)-N-(4H-1,2,4-triazol-4-yl)-2-(trifluoromethyl)benzamide] | 0 | 0 |  |  |  | 
O=C(NNc1ncccn1)c1ccc(/C(F)=C/[C@@H](c2cc(Cl)c(Cl)c(Cl)c2)C(F)(F)F)cc1C(F)(F)F (single isomer, unassigned) [F94] | 50 to 100 | 50 to 100 | 0 | 0 | 7 | 100
O=C(NNc1ccncn1)c1ccc(/C(F)=C/C(c2cc(Cl)c(Cl)c(Cl)c2)C(F)(F)F)cc1C(F)(F)F (stereo not shown) [F19, (Z)—N′-(Pyrimidin-4-yl)-4-(1,4,4,4-tetrafluoro-3-(3,4,5-trichlorophenyl)but-1-en-1-yl)-2-(trifluoromethyl)benzohydrazide] | 50 to 100 | 50 to 100 |  |  |  | 
Cc1nc(Cl)cc(NNC(=O)c2ccc(/C(F)=C/C(c3cc(Cl)c(Cl)c(Cl)c3)C(F)(F)F)cc2C(F)(F)F)n1 (stereo not shown) [F79, (Z)—N′-(6-Chloro-2-methylpyrimidin-4-yl)-4-(1,4,4,4-tetrafluoro-3-(3,4,5-trichlorophenyl)but-1-en-1-yl)-2-(trifluoromethyl)benzohydrazide] | 50 to 100 | 50 to 100 |  |  |  | 
CC(C)CCNNC(=O)c1ccc(/C(F)=C/C(c2cc(Cl)c(Cl)c(Cl)c2)C(F)(F)F)cc1C(F)(F)F (stereo not shown) [F145, (Z)—N′-Isopentyl-4-(1,4,4,4-tetrafluoro-3-(3,4,5-trichlorophenyl)but-1-en-1-yl)-2-(trifluoromethyl)benzohydrazide] | 50 to 100 | 50 to 100 |  |  |  | 
O=C(NNc1cccc(C(F)(F)F)n1)c1ccc(/C(F)=C/C(c2cc(Cl)c(Cl)c(Cl)c2)C(F)(F)F)cc1C(F)(F)F (stereo not shown) [F141, (Z)-4-(1,4,4,4-Tetrafluoro-3-(3,4,5-trichlorophenyl)but-1-en-1-yl)-2-(trifluoromethyl)-N′-(6-(trifluoromethyl)pyridin-2-yl)benzohydrazide] | 50 to 100 | 50 to 100 |  |  |  | 
O=C(NNc1c(Cl)cnc(C(Cl)(Cl)Cl)c1Cl)c1ccc(/C(F)=C/C(c2cc(Cl)c(Cl)c(Cl)c2)C(F)(F)F)cc1C(F)(F)F (stereo not shown) [F69, (Z)—N′-(3,5-Dichloro-2-(trichloromethyl)-4-pyridin-4-yl)-4-(1,4,4,4-tetrafluoro-3-(3,4,5-trichlorophenyl)but-1-en-1-yl]-2-(trifluoromethyl)benzohydrazide] | 0 | 0 |  |  |  | 
O=C(NNc1ncccn1)c1ccc(/C(F)=C/C(c2cc(Cl)cc(Br)c2)C(F)(F)F)cc1C(F)(F)F (stereo not shown) [F173, (Z)-4-(3-(3-Bromo-5-chlorophenyl)-1,4,4,4-tetrafluorobut-1-en-1-yl)-N′-(pyrimidin-2-yl)-2-(trifluoromethyl)benzohydrazide] | 50 to 100 | 50 to 100 |  |  |  | 
O=C(NNc1ccnnc1)c1ccc(/C(F)=C/C(c2cc(Cl)c(Cl)c(Cl)c2)C(F)(F)F)cc1C(F)(F)F (stereo not shown) [F33, (Z)—N′-(Pyridazin-4-yl)-4-(1,4,4,4-tetrafluoro-3-(3,4,5-trichlorophenyl)but-1-en-1-yl)-2-(trifluoromethyl)benzohydrazide] | 50 to 100 | 50 to 100 |  |  |  | 
CS(=O)(=O)c1nc(Cl)c(Cl)c(NNC(=O)c2ccc(/C(F)=C/C(c3cc(Cl)c(Cl)c(Cl)c3)C(F)(F)F)cc2C(F)(F)F)c1Cl (stereo not shown) [F21, (Z)-4-(1,4,4,4-Tetrafluoro-3-(3,4,5-trichlorophenyl)but-1-en-1-yl)-N′-(2,3,5-trichloro-6-methylsulfonyl-4-pyridin-4-yl)-2-(trifluoromethyl)benzohydrazide] | 50 to 100 | 50 to 100 |  |  |  | 
Cc1nc(C)c(C)c(NNC(=O)c2ccc(/C(F)=C/C(c3cc(Cl)c(Cl)c(Cl)c3)C(F)(F)F)cc2C(F)(F)F)n1 (stereo not shown) [F75, (Z)-4-(1,4,4,4-Tetrafluoro-3-(3,4,5-trichlorophenyl)but-1-en-1-yl)-2-(trifluoromethyl)-N′-(2,5,6-trimethylpyrimidin-4-yl)benzohydrazide] | 50 to 100 | 50 to 100 |  |  |  | 
COCN(NC(=O)c1ccc(/C(F)=C/C(c2cc(Cl)c(Cl)c(Cl)c2)C(F)(F)F)cc1C(F)(F)F)c1ncccn1 (stereo not shown) [F179, (Z)—N′-(methoxymethyl)-N′-(pyrimidin-2-yl)-4-(1,4,4,4-tetrafluoro-3-(3,4,5-trichlorophenyl)but-1-en-1-yl)-2-(trifluoromethyl)benzohydrazide] | 50 to 100 | 50 to 100 |  |  |  | 
O=C(NNc1ncccn1)c1ccc(/C(F)=C/C(c2cc(Cl)cc(C(F)(F)F)c2)C(F)(F)F)cc1C(F)(F)F (stereo not shown) [F77, (Z)-4-(3-(3-Chloro-5-(trifluoromethyl)phenyl)-1,4,4,4-tetrafluorobut-1-en-1-yl)-N′-(pyrimidin-2-yl)-2-(trifluoromethyl)benzohydrazide] | 50 to 100 | 50 to 100 |  |  |  | 
O=C(NNc1cnccn1)c1ccc(/C(F)=C/C(c2cc(Cl)c(Cl)c(Cl)c2)C(F)(F)F)cc1C(F)(F)F (stereo not shown) [F92, (Z)—N′-(Pyrazin-2-yl)-4-(1,4,4,4-tetrafluoro-3-(3,4,5-trichlorophenyl)but-1-en-1-yl)-2-(trifluoromethyl)benzohydrazide] | 50 to 100 | 50 to 100 |  |  |  | 
O=C(NNc1ccccc1)c1ccc(/C(F)=C/C(c2cc(Br)c(F)c(Br)c2)C(F)(F)F)cc1C(F)(F)F (stereo not shown) [F45, (Z)-4-(3-(3,5-dibromo-4-fluorophenyl)-1,4,4,4-tetrafluorobut-1-en-1-yl)-N′-phenyl-2-(trifluoromethyl)benzohydrazide] | 50 to 100 | 50 to 100 |  |  |  | 
O=C(NNc1ncccn1)c1ccc(/C(F)=C/[C@H](c2cc(Cl)c(Cl)c(Cl)c2)C(F)(F)F)cc1C(F)(F)F (single isomer, unassigned) [F120] | 50 to 100 | 50 to 100 | 100 | 100 | 100 | 100
Cc1cc(C)nc(NNC(=O)c2ccc(/C(F)=C/C(c3cc(Cl)c(Cl)c(Cl)c3)C(F)(F)F)cc2C(F)(F)F)n1 (stereo not shown) [F85, (Z)—N′-(4,6-Dimethylpyrimidin-2-yl)-4-(1,4,4,4-tetrafluoro-3-(3,4,5-trichlorophenyl)but-1-en-1-yl)-2-(trifluoromethyl)benzohydrazide] | 50 to 100 | 50 to 100 |  |  |  | 
O=C(NNc1ncccn1)c1ccc(/C(F)=C/C(c2cc(Cl)c(Cl)c(Br)c2)C(F)(F)F)cc1C(F)(F)F (stereo not shown) [F96, (Z)-4-(3-(3-Bromo-4,5-dichlorophenyl)-1,4,4,4-tetrafluorobut-1-en-1-yl)-N′-(pyrimidin-2-yl)-2-(trifluoromethyl)benzohydrazide] | 50 to 100 | 50 to 100 |  |  |  | 
O=C(N/N=C/c1ccccc1)c1ccc(/C(F)=C/C(c2cc(Cl)c(Cl)c(Cl)c2)C(F)(F)F)cc1C(F)(F)F (stereo not shown) [F38, N′-((E)-benzylidene)-4-((Z)-1,4,4,4-tetrafluoro-3-(3,4,5-trichlorophenyl)but-1-en-1-yl)-2-(trifluoromethyl)benzohydrazide] | 50 to 100 | 50 to 100 |  |  |  | 
O=C(NNc1ncccn1)c1ccc(/C(F)=C/C(c2cc(Cl)cc(OC(F)(F)F)c2)C(F)(F)F)cc1C(F)(F)F (stereo not shown) [F106, (Z)-4-(3-(3-Chloro-5-(trifluoromethoxy)phenyl)-1,4,4,4-tetrafluorobut-1-en-1-yl)-N′-(pyrimidin-2-yl)-2-(trifluoromethyl)benzohydrazide] | 50 to 100 | 50 to 100 |  |  |  | 
O=C(Nn1cccc1)c1ccc(/C(F)=C/C(c2cc(Cl)c(Cl)c(Cl)c2)C(F)(F)F)cc1C(F)(F)F (stereo not shown) [F51, (Z)—N-(1H-Pyrrol-1-yl)-4-(1,4,4,4-tetrafluoro-3-(3,4,5-trichlorophenyl)but-1-en-1-yl)-2-(trifluoromethyl)benzamide] | 50 to 100 | 50 to 100 |  |  |  | 
